{"source": "patent US9051290B2", "about": "“Biaryl phosphodiesterase inhibitors” (LEO PHARMA A/S, priority 2010, dated 2015)", "data": [{"target": "Human recombinant PDE4 (Genbank accession no NM—006203) (Homo sapiens, UniProt Q08499)", "sequence (Q08499 1-673 isoform Q08499-2)": "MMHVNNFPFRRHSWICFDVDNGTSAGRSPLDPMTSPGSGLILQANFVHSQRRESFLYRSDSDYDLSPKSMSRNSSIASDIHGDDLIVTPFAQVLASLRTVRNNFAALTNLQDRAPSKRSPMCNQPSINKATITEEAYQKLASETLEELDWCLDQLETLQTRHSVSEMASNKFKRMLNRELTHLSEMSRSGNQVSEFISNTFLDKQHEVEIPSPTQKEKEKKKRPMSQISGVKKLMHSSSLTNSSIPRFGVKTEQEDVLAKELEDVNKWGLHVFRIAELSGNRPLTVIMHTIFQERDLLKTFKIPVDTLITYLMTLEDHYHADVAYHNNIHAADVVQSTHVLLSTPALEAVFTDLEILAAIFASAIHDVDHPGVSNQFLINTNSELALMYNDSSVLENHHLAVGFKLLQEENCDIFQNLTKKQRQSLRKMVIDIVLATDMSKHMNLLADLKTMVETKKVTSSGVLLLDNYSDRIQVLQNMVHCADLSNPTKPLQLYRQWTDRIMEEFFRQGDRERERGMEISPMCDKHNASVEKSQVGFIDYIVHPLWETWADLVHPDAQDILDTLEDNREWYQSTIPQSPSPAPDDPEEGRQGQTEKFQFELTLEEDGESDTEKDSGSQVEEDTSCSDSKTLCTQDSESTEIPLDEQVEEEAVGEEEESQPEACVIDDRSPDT", "assay": "PDE4 assay (SPA, cleavage of cAMP)", "format": "biochemical", "conditions": "1 hour incubation, test compound up to 10 μM, cAMP 1×10^−5M, read-out: PDE4 IC50 range", "procedure": "Human recombinant PDE4 (Genbank accession no NM_006203) was incubated for 1 hour with the test compound at concentrations up to 10 μM, with cAMP (1×10^−5M), and with a low amount (0.021 MBq) of radioactively labelled cAMP. At the end of the incubation, the cleavage of the substrate was evaluated by the binding of the AMP product to SPA beads, which generate chemoluminescence when bound to the radioactive tracer. The AMP product inhibited the binding of the radioactive tracer to the beads, and the luminescent signal was competed.\nThe results were calculated as the molar concentrations resulting in 50% inhibition of the substrate cleavage compared to controls samples, and are expressed as a range of IC50 (M).\nThe compounds of the present invention were tested in the PDE4 assay.", "units": {"IC50": "nM"}, "values": [{"smiles": "COc1ccc(-c2ccc3c(c2)CN(C)C3=O)c(OCC(C)C)c1OC", "note": "[Compound 172, 5-(2-Isobutoxy-3,4-dimethoxy-phenyl)-2-methyl-2,3-dihydro-isoindol-1-one]", "IC50": "≥ 500"}, {"smiles": "COc1ccc(-c2cccc3c2CNC3=O)c(OCC(C)C)c1OC", "note": "[Compound 173, 4-(2-Isobutoxy-3,4-dimethoxy-phenyl)-2,3-dihydro-isoindol-1-one]", "IC50": "100 to 500"}, {"smiles": "COc1ccc(-c2ccc3c(c2)CNC3=O)c(OCC(C)C)c1OC", "note": "[Compound 174, 5-(2-Isobutoxy-3,4-dimethoxy-phenyl)-2,3-dihydro-isoindol-1-one]", "IC50": "< 100"}, {"smiles": "COc1ccc(-c2cccc3c2COC3=O)c(OCC(C)C)c1OC", "note": "[Compound 175, 4-(2-Isobutoxy-3,4-dimethoxy-phenyl)-3H-isobenzofuran-1-one]", "IC50": "< 100"}, {"smiles": "COc1ccc(-c2ccc3c(c2)OCC3=O)c(OCC(C)C)c1OC", "note": "[Compound 176, 6-(2-Isobutoxy-3,4-dimethoxy-phenyl)-benzofuran-3-one]", "IC50": "100 to 500"}, {"smiles": "COc1ccc(-c2cccc3c2CCC3=O)c(OCC2(CO)CC2)c1OC", "note": "[Compound 177, 4-[2-(1-Hydroxymethyl-cyclopropylmethoxy)-3,4-dimethoxy-phenyl]-indan-1-one]", "IC50": "< 100"}, {"smiles": "COCC1(COc2c(-c3cccc4c3CCC4=O)ccc(OC)c2OC)CC1", "note": "[Compound 178, 4-[3,4-Dimethoxy-2-(1-methoxymethyl-cyclopropylmethoxy)-phenyl]-indan-1-one]", "IC50": "< 100"}, {"smiles": "CCNC(=O)OCC1(COc2c(-c3cccc4c3CCC4=O)ccc(OC)c2OC)CC1", "note": "[Compound 179, Ethyl-carbamic acid 1-[2,3-dimethoxy-6-(1-oxo-indan-4-yl)-phenoxymethyl]-cyclopropylmethyl ester]", "IC50": "< 100"}, {"smiles": "COc1ccc(-c2cccc3c2CCC3=O)c(OCC2(COC(=O)NC(C)C)CC2)c1OC", "note": "[Compound 180, Isopropyl-carbamic acid 1-[2,3-dimethoxy-6-(1-oxo-indan-4-yl)-phenoxymethyl]-cyclopropylmethyl ester]", "IC50": "< 100"}, {"smiles": "COc1ccc(-c2cccc3c2CCC3=O)c(OCC2(COC(=O)NCc3ccccc3)CC2)c1OC", "note": "[Compound 181, Benzyl-carbamic acid 1-[2,3-dimethoxy-6-(1-oxo-indan-4-yl)-phenoxymethyl]-cyclopropylmethyl ester]", "IC50": "< 100"}, {"smiles": "COc1ccc(-c2cccc3c2CCC3=O)c(OCC2(CNC(=O)C(C)C)CC2)c1OC", "note": "[Compound 183]", "IC50": "< 100"}, {"smiles": "CCCC(=O)NCC1(COc2c(-c3cccc4c3CCC4=O)ccc(OC)c2OC)CC1", "note": "[Compound 184, N-{1-[2,3-Dimethoxy-6-(1-oxo-indan-4-yl)-phenoxymethyl]-cyclopropylmethyl}-butyramide]", "IC50": "< 100"}, {"smiles": "COc1ccc(-c2cccc3c2CCC3=O)c(OCC2(CNC(C)=O)CC2)c1OC", "note": "[Compound 185, N-{1-[2,3-Dimethoxy-6-(1-oxo-indan-4-yl)-phenoxymethyl]-cyclopropylmethyl}-acetamide]", "IC50": "< 100"}, {"smiles": "CCOC(=O)NCC1(COc2c(-c3cccc4c3CCC4=O)ccc(OC)c2OC)CC1", "note": "[Compound 186, {1-[2,3-Dimethoxy-6-(1-oxo-indan-4-yl)-phenoxymethyl]-cyclopropylmethyl}-carbamic Acid Ethyl Ester]", "IC50": "< 100"}, {"smiles": "COc1ccc(-c2cccc3c2CCC3=O)c(OCC2(CNC(=O)OC(C)C)CC2)c1OC", "note": "[Compound 187, {1-[2,3-Dimethoxy-6-(1-oxo-indan-4-yl)-phenoxymethyl]-cyclopropylmethyl}-carbamic Acid Isopropyl Ester]", "IC50": "< 100"}, {"smiles": "COCCOC(=O)NCC1(COc2c(-c3cccc4c3CCC4=O)ccc(OC)c2OC)CC1", "note": "[Compound 188, {1-[2,3-Dimethoxy-6-(1-oxo-indan-4-yl)-phenoxymethyl]-cyclopropylmethyl}-carbamic acid 2-methoxy-ethyl Ester]", "IC50": "< 100"}, {"smiles": "CCNC(=O)OCC1(COc2c(-c3cccc4c3CCC4=O)ccc(OC)c2OC)COC1", "note": "[Compound 189, Ethyl-carbamic acid 3-[2,3-dimethoxy-6-(1-oxo-indan-4-yl)-phenoxymethyl]-oxetan-3-ylmethyl ester]", "IC50": "< 100"}, {"smiles": "COCC1(COc2c(-c3cccc4c3CCC4=O)ccc(OC)c2OC)COC1", "note": "[Compound 190, 4-[3,4-Dimethoxy-2-(3-methoxymethyl-oxetan-3-ylmethoxy)-phenyl]-indan-1-one]", "IC50": "< 100"}, {"smiles": "COc1ccc(-c2cccc3c2CCC3=O)c(OCC2(CNC(C)=O)COC2)c1OC", "note": "[Compound 192, N-{3-[2,3-Dimethoxy-6-(1-oxo-indan-4-yl)-phenoxymethyl]-oxetan-3-ylmethyl}-acetamide]", "IC50": "< 100"}, {"smiles": "COc1ccc(-c2cccc3c2CCC3=O)c(OCC2(CNC(=O)C(C)C)COC2)c1OC", "note": "[Compound 193, N-{3-[2,3-Dimethoxy-6-(1-oxo-indan-4-yl)-phenoxymethyl]-oxetan-3-ylmethyl}-isobutyramide]", "IC50": "< 100"}, {"smiles": "CCCC(=O)NCC1(COc2c(-c3cccc4c3CCC4=O)ccc(OC)c2OC)COC1", "note": "[Compound 194, N-{3-[2,3-Dimethoxy-6-(1-oxo-indan-4-yl)-phenoxymethyl]-oxetan-3-ylmethyl}-butyramide]", "IC50": "< 100"}, {"smiles": "COCC(=O)NCC1(COc2c(-c3cccc4c3CCC4=O)ccc(OC)c2OC)COC1", "note": "[Compound 195, N-{3-[2,3-Dimethoxy-6-(1-oxo-indan-4-yl)-phenoxymethyl]-oxetan-3-ylmethyl}-2-methoxy-acetamide]", "IC50": "< 100"}, {"smiles": "CCOC(=O)NCC1(COc2c(-c3cccc4c3CCC4=O)ccc(OC)c2OC)COC1", "note": "[Compound 196, {3-[2,3-Dimethoxy-6-(1-oxo-indan-4-yl)-phenoxymethyl]-oxetan-3-ylmethyl}-carbamic acid ethyl ester]", "IC50": "< 100"}, {"smiles": "COc1ccc(-c2cccc3c2CCC3=O)c(OCC2(CNC(=O)OC(C)C)COC2)c1OC", "note": "[Compound 197, {3-[2,3-Dimethoxy-6-(1-oxo-indan-4-yl)-phenoxymethyl]-oxetan-3-ylmethyl}-carbamic acid isopropyl ester]", "IC50": "< 100"}, {"smiles": "COCCOC(=O)NCC1(COc2c(-c3cccc4c3CCC4=O)ccc(OC)c2OC)COC1", "note": "[Compound 198, {3-[2,3-Dimethoxy-6-(1-oxo-indan-4-yl)-phenoxymethyl]-oxetan-3-ylmethyl}-carbamic acid 2-methoxy-ethyl ester]", "IC50": "< 100"}, {"smiles": "CNC(=O)C(C)(C)COc1c(-c2cccc3c2CCC3=O)ccc(OC)c1OC", "note": "[Compound 200, 3-[2,3-Dimethoxy-6-(1-oxo-indan-4-yl)-phenoxy]-2,2,N-trimethyl-propionamide]", "IC50": "< 100"}, {"smiles": "CCNC(=O)C(C)(C)COc1c(-c2cccc3c2CCC3=O)ccc(OC)c1OC", "note": "[Compound 201, 3-[2,3-Dimethoxy-6-(1-oxo-indan-4-yl)-phenoxy]-N-ethyl-2,2-dimethyl-propionamide]", "IC50": "< 100"}, {"smiles": "COc1ccc(-c2cccc3c2CCC3=O)c(OCC(C)(C)C(=O)N(C)C)c1OC", "note": "[Compound 202, 3-[2,3-Dimethoxy-6-(1-oxo-indan-4-yl)-phenoxy]-2,2,N,N-tetramethyl-propionamide]", "IC50": "< 100"}, {"smiles": "COc1ccc(-c2cccc3c2CCC3=O)c(OCC(C)(C)C(=O)NC2CC2)c1OC", "note": "[Compound 203, N-Cyclopropyl-3-[2,3-dimethoxy-6-(1-oxo-indan-4-yl)-phenoxy]-2,2-dimethyl-propionamide]", "IC50": "< 100"}]}]}
